Source: patent publication US12686673B2 (Blueprint Medicines Corporation, priority 2020, dated 2026)
Where two headings read alike, the source gives them in different places.

Experiments:
Assay type in all cases: cell-based
[1] = biological target: EGFR (A767_dupASV) expressing Ba/F3 stable cell line (Homo sapiens, UniProt P00533, DUP767-769, cells depend on it); assay: Cellular proliferation (Alamar Blue) assay, EGFR A767_dupASV Ba/F3; conditions: 72 hr, read-out: A767 IC50
Description: (§1) • 1. EGFR(D770_N771insSVD) expressing Ba/F3 stable cell line • 2. EGFR (A767_dupASV) expressing Ba/F3 stable cell line • 3. A431 cells • 4. EGFR (H773insNPH) expressing Ba/F3 stable cell line • 5. HER2 (A775_G776insYVMA) expressing Ba/F3 stable cell line Assay Procedure: • 1. Seed cells at 5000 for A431 and 15,000 cells for Ba/F3 in 100 μL/well in complete media (for A431: DMEM with […] and for Ba/F3 cells: RPMI with 10% FBS) in 96-well tissue culture plate. Leave outer wells without cells for background measurements. Incubate at 37 degree Celsius in […] humidified incubator for 16-18 hours. • 2. Add 0.025 ml of 5× concentration compound dilution or DMSO control. Final compound concentration range is 10-0.0005 μM prepared in 3-fold serial dilutions. Incubate for 72 hr at 37 degree Celsius in […] humidified incubator. • 3. Add 0.0125 ml Alamar Blue™ reagent to each well with multi-channel pipette and tap gently on each side of the plate to mix. Incubate for 3 hours at 37 degree Celsius in 5% CO2 humidified incubator. • 4. […] Data analysis was performed using XLfit 5.5.0.5.

[2] = biological target: EGFR(D770_N771insSVD) expressing Ba/F3 stable cell line (Homo sapiens, UniProt P00533, DUP768-770, cells depend on it); assay: Cellular proliferation (Alamar Blue) assay, EGFR D770_N771insSVD Ba/F3; conditions: 72 hr, read-out: D770 IC50
Description: as §1

A431 cells = assay: Cellular proliferation (Alamar Blue) assay, A431
Description: as §1

[3] = Homo sapiens, A-431; A431 cells, Alamar Blue, 72 hr; read-out: A431 IC50
[4] = Homo sapiens, A-431; A431 cells, 72 hr, Alamar Blue; read-out: A431 IC50

Chain of EGFR(D770_N771insSVD) expressing Ba/F3 stable cell line (P00533 with tags, fused parts or gaps DUP768-770): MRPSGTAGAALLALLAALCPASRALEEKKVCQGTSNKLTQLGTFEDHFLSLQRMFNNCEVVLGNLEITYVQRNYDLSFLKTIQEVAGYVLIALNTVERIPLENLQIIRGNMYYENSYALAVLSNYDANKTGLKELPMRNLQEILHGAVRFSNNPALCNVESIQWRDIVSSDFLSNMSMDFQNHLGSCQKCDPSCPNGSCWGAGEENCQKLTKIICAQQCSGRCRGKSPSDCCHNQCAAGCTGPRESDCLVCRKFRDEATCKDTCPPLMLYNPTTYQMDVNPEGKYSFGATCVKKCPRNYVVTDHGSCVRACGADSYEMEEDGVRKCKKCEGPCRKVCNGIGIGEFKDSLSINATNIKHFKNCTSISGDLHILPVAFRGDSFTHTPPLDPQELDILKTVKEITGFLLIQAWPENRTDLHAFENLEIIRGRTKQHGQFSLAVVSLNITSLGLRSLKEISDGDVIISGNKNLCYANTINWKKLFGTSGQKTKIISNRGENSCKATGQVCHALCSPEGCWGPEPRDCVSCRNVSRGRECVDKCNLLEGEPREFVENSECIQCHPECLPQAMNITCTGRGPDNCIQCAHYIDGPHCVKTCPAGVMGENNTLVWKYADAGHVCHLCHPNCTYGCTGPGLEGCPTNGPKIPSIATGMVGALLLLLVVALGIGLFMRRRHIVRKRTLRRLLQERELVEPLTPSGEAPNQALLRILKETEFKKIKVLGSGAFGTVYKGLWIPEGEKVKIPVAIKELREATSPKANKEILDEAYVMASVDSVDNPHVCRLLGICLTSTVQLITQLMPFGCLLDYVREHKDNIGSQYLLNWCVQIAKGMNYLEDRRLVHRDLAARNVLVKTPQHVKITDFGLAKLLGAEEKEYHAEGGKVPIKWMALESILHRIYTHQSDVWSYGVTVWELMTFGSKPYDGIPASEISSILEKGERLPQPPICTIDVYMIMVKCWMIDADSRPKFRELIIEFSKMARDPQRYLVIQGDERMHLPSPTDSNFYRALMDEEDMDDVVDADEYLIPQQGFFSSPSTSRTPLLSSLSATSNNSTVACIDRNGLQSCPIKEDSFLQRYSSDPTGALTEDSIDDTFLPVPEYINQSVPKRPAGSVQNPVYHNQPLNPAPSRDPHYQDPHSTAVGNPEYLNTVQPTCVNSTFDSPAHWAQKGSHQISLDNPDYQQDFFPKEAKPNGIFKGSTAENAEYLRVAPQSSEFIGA
Chain of EGFR (A767_dupASV) expressing Ba/F3 stable cell line (P00533 with tags, fused parts or gaps DUP767-769): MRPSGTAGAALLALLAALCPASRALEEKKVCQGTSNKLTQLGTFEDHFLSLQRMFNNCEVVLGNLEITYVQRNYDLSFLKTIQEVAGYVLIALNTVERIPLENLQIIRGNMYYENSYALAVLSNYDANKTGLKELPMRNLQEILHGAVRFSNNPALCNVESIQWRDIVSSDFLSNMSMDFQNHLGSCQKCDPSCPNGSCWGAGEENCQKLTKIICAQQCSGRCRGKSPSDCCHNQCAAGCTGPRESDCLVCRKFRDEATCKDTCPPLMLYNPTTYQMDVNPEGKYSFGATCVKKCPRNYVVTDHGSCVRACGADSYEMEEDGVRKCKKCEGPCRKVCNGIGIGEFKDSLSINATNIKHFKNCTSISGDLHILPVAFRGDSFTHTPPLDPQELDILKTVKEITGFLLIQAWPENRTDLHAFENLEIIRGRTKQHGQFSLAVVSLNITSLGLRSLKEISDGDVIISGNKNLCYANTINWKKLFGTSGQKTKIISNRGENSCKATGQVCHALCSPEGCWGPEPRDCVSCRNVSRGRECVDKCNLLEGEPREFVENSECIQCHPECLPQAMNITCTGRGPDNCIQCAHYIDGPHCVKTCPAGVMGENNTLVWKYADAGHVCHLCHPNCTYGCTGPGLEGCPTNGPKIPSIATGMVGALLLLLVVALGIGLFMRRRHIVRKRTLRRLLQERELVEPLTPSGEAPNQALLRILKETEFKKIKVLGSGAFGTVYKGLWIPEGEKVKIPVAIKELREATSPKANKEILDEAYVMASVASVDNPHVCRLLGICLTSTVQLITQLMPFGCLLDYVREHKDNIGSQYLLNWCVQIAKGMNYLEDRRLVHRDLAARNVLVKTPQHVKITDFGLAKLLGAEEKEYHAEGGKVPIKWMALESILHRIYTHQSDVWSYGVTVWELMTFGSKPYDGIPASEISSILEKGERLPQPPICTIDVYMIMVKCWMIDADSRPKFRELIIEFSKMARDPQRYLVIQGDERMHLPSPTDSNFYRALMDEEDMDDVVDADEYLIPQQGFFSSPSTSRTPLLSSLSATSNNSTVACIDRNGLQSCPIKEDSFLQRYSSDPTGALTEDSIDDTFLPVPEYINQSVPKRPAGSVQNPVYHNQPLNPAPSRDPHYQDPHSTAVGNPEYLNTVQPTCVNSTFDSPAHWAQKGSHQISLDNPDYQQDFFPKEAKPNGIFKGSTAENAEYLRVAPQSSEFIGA

Structure (SMILES) | GI50 [1] [nM] | GI50 [2] [nM] | IC50 (A431 cells; [3]) [nM] | IC50 (A431 cells; [4]) [nM]
C=CC(=O)Nc1cccc(Oc2nc(Nc3ccc(N4CCN(C)CC4)cc3OC)ncc2-c2ccc(C(F)(F)F)cc2)c1 [Compound 191, N-(3-((2-((2-methoxy-4-(4-methylpiperazin-1-yl)phenyl)amino)-5-(4-(trifluoromethyl)phenyl)pyrimidin-4-yl)oxy)phenyl)acrylamide] | 9650 | > 10000 | 898 | 
C=CC(=O)Nc1cccc(Oc2nc(Nc3cnn(C)c3)ncc2C2=CCOCC2)c1 [Compound 192, N-(3-((5-(3,6-dihydro-2H-pyran-4-yl)-2-((1-methyl-1H-pyrazol-4-yl)amino)pyrimidin-4-yl)oxy)phenyl)acrylamide] | 241 | 267 | 258 | 
C=CC(=O)Nc1cccc(Oc2nc(Nc3ccccc3OC)ncc2-c2ccc(C(F)(F)F)cc2)c1 [Compound 193, N-[3-({2-[(2-methoxyphenyl)amino]-5-[4-(trifluoromethyl)phenyl]pyrimidin-4-yl}oxy)phenyl]prop-2-enamide] | > 10000 | > 10000 | 8760 | 
C=CC(=O)Nc1cccc(Oc2nc(NC3CC3)ncc2-c2ccc(C(F)(F)F)cc2)c1 [Compound 194, N-(3-((2-(cyclopropylamino)-5-(4-(trifluoromethyl)phenyl)pyrimidin-4-yl)oxy)phenyl)acrylamide] | > 10000 | > 10000 | > 10000 | 
C=CC(=O)Nc1ccnc(Nc2nc(Nc3cnn(C)c3)ncc2-c2ccc(C(F)(F)F)cc2)c1 [Compound 196, N-(2-((2-((1-methyl-1H-pyrazol-4-yl)amino)-5-(4-(trifluoromethyl)phenyl)pyrimidin-4-yl)amino)pyridin-4-yl)acrylamide] | 8470 | 3210 | 7550 | 
C=CC(=O)Nc1cccc(Nc2nc(Nc3cnn(C)c3)ncc2-c2ccc(C(F)(F)F)cc2)n1 [Compound 197, N-(6-((2-((1-methyl-1H-pyrazol-4-yl)amino)-5-(4-(trifluoromethyl)phenyl)pyrimidin-4-yl)amino)pyridin-2-yl)acrylamide] | 448 | 395 | 373 | 
C=CC(=O)Nc1cc(Nc2nc(Nc3cnn(C)c3)ncc2-c2ccc(C(F)(F)F)cc2)c(F)cn1 [Compound 198, N-[5-fluoro-4-({2-[(1-methyl-1H-pyrazol-4-yl)amino]-5-[4-(trifluoromethyl)phenyl]pyrimidin-4-yl}amino)pyridin-2-yl]prop-2-enamide; trifluoroacetic acid] | 2640 | 1270 |  | 2140
C=CC(=O)Nc1cc(Nc2nc(Nc3cnn(C)c3)ncc2-c2ccc(C(F)(F)F)cc2)ccc1N(C)CCN(C)C [Compound 199, N-(2-{[2-(dimethylamino)ethyl](methyl)amino}-5-({2-[(1-methyl-1H-pyrazol-4-yl)amino]-5-[4-(trifluoromethyl)phenyl]pyrimidin-4-yl}amino)phenyl)prop-2-enamide] | 704 | 239 |  | 716
C=CC(=O)Nc1cc(Nc2nc(Nc3cnn(C)c3)ncc2-c2ccc(C(F)(F)F)cc2)ccn1 [Compound 200, N-(4-((2-((1-methyl-1H-pyrazol-4-yl)amino)-5-(4-(trifluoromethyl)phenyl)pyrimidin-4-yl)amino)pyridin-2-yl)acrylamide] | 2760 | 6020 |  | 1280
C=CC(=O)Nc1cc(F)cc(Nc2nc(Nc3cnn(C)c3)ncc2-c2ccc(Br)cc2)c1 [Compound 207, N-(3-((5-(4-bromophenyl)-2-((1-methyl-1H-pyrazol-4-yl)amino)pyrimidin-4-yl)amino)-5-fluorophenyl)acrylamide] | 31 | 32 |  | 49
C=CC(=O)Nc1cccc(-n2c3cc(C(F)(F)F)ccc3c3cnc(Nc4cnn(C)c4)nc32)c1 [Compound 209] | 9860 | 7970 |  | 5410

The remaining lines, values ahead:

GI50 [1] [nM] | GI50 [2] [nM] | IC50 (A431 cells; [3]) [nM] | IC50 (A431 cells; [4]) [nM] | Structure (SMILES)
667 | 404 |  | 1600 | C=CC(=O)Nc1ccc(F)c(Nc2nc(Nc3cc(C)ns3)ncc2-c2ccc(C(F)(F)F)cc2)c1 [Compound 211, N-[4-fluoro-3-({2-[(3-methyl-1,2-thiazol-5-yl)amino]-5-[4-(trifluoromethyl)phenyl]pyrimidin-4-yl}amino)phenyl]prop-2-enamide]
1570 | 884 |  | > 10000 | C=CC(=O)Nc1ccc(F)c(Nc2nc(Nc3cc(C)sn3)ncc2-c2ccc(C(F)(F)F)cc2)c1 [Compound 212, N-(4-fluoro-3-((2-((5-methylisothiazol-3-yl)amino)-5-(4-(trifluoromethyl)phenyl)pyrimidin-4-yl)amino)phenyl)acrylamide]
3680 | 1290 |  | 1820 | C=CC(=O)Nc1ccc(F)c(Nc2nc(Nc3nc(C)cs3)ncc2-c2ccc(C(F)(F)F)cc2)c1 [Compound 213, N-(4-fluoro-3-((2-((4-methylthiazol-2-yl)amino)-5-(4-(trifluoromethyl)phenyl)pyrimidin-4-yl)amino)phenyl)acrylamide]
543 | 308 |  | > 10000 | C=CC(=O)Nc1ccc(F)c(Nc2nc(Nc3cn(C)cn3)ncc2-c2ccc(C(F)(F)F)cc2)c1 [Compound 214, N-(4-fluoro-3-((2-((1-methyl-1H-imidazol-4-yl)amino)-5-(4-(trifluoromethyl)phenyl)pyrimidin-4-yl)amino)phenyl)acrylamide]
> 10000 | 991 |  | 2270 | C=CC(=O)Nc1ccc(F)c(Nc2nc(Nc3nccs3)ncc2-c2ccc(C(F)(F)F)cc2)c1 [Compound 215, N-(4-fluoro-3-((2-(thiazol-2-ylamino)-5-(4-(trifluoromethyl)phenyl)pyrimidin-4-yl)amino)phenyl)acrylamide]
1130 | 916 |  | > 10000 | C=CC(=O)Nc1ccc(F)c(Nc2nc(Nc3csc(C)c3)ncc2-c2ccc(C(F)(F)F)cc2)c1 [Compound 217, N-(4-fluoro-3-((2-((5-methylthiophen-3-yl)amino)-5-(4-(trifluoromethyl)phenyl)pyrimidin-4-yl)amino)phenyl)acrylamide]
8470 | 1690 |  | 1580 | C=CC(=O)Nc1ccc(F)c(Nc2nc(Nc3cccc(CN(C)C)c3)ncc2-c2ccc(C(F)(F)F)cc2)c1 [Compound 218, N-(3-((2-((3-((dimethylamino)methyl)phenyl)amino)-5-(4-(trifluoromethyl)phenyl)pyrimidin-4-yl)amino)-4-fluorophenyl)acrylamide]
211 | 110 |  | 133 | C=CC(=O)Nc1ccc(F)c(Nc2nc(Nc3cnn(C4CCOCC4)c3)ncc2-c2ccc(C(F)(F)F)cc2)c1 [Compound 220, N-(4-fluoro-3-((2-((1-(tetrahydro-2H-pyran-4-yl)-1H-pyrazol-4-yl)amino)-5-(4-(trifluoromethyl)phenyl)pyrimidin-4-yl)amino)phenyl)acrylamide]
> 10000 | > 10000 |  | 8150 | C=CC(=O)Nc1ccc(F)c(Nc2nc(Nc3cnn(C)c3)ncc2N2CCOCC2)c1 [Compound 222, N-(4-fluoro-3-((2-((1-methyl-1H-pyrazol-4-yl)amino)-5-morpholinopyrimidin-4-yl)amino)phenyl)acrylamide]
